According to patent US8071508B2, “Process for preparing paste-extruded sulfonamide compositions” (priority 2002, dated 2011):
In brackets after ≈: the same amount, converted by molar mass.

assay: not given; conditions: in water at ambient temperatures, typically about 20 to 25° C.; cited from earlier work

Row | Molecule | pKa
1 | COC(=O)c1c(Cl)nn(C)c1S(=O)(=O)NC(=O)Nc1nc(OC)cc(OC)n1 [halosulfuron-methyl, methyl 3-chloro-5-[[[[(4,6-dimethoxy-2-pyrimidinyl)amino]carbonyl]amino]sulfonyl]-1-methyl-1H-pyrazole-4-carboxylate] | 3.4
2 | COCCOc1ccccc1S(=O)(=O)NC(=O)N=c1nc(OC)[nH]c(OC)n1 [cinosulfuron, N-[[(4,6-dimethoxy-1,3,5-triazin-2-yl)amino]carbonyl]-2-(2-methoxyethoxy)benzenesulfonamide] | 4.7
3 | CCOC(=O)c1cnn(C)c1S(=O)(=O)NC(=O)Nc1nc(OC)cc(OC)n1 [pyrazosulfuron-ethyl, ethyl 5-[[[[(4,6-dimethoxy-2-pyrimidinyl)amino]carbonyl]amino]sulfonyl]-1-methyl-1H-pyrazole-4-carboxylate] | 3.7
4 | methyl 2-[[[[[4,6-bis(trifluoromethoxy)-2-pyrimidinyl]amino]carbonyl]amino]sulfonyl]-benzoate [primisulfuron-methyl] | 3.5
5 | COc1cc(OC)nc(NC(=O)NS(=O)(=O)N(C)S(C)(=O)=O)n1 [amidosulfuron, N-[[[[(4,6-dimethoxy-2-pyrimdinyl)amino]carbonyl]amino]-sulfonyl]-N-methylmethanesulfonamide] | 3.6
6 | COc1cc(OC)nc(NC(=O)NS(=O)(=O)c2ncccc2OCC(F)(F)F)n1 [trifloxysulfuron, N-[[(4,6-dimethoxy-2-pyrimidinyl)amino]-carbonyl]-3-(2,2,2-trifluoroethoxy)-2-pyridinesulfonamide] | 4.8
7 | COc1ncc(F)c2nc(S(=O)(=O)Nc3c(F)cccc3F)nn12 [florasulam, N-(2,6-difluorophenyl)-8-fluoro-5-methoxy[1,2,4]triazolo[1,5-c]pyrimidine-2-sulfonamide] | 4.5
8 | CCOc1nc(F)cc2nc(S(=O)(=O)Nc3c(Cl)cccc3C(=O)OC)nn12 [cloransulam-methyl, methyl 3-chloro-2-[[(5-ethoxy-7-fluoro[1,2,4]-triazolo[1,5-c]pyrimidin-2-yl)sulfonyl]amino]benzoate] | 4.8
9 | COc1nc(C)nc(NC(=O)NS(=O)(=O)c2ccccc2OCCCl)n1 [triasulfuron, 2-(2-chloroethoxy)-N-[[(4-methoxy-6-methyl-1,3,5-triazin-2-yl)amino]carbonyl]benzenesulfonamide] | 4.6
10 | N-[[[2-(cyclopropylcarbonyl)phenyl]amino]sulfonyl]-N^1-(4,6-dimethoxypyrimidin-2-yl)urea [cyclosulfamuron] | 5.0
11 | CCOc1nc(NC)nc(NC(=O)NS(=O)(=O)c2ccccc2C(=O)OC)n1 [ethametsulfuron-methyl, methyl 2-[[[[[4-ethoxy-6-(methylamino)-1,3,5-triazin-2-yl]amino]carbonyl]amino]sulfonyl]benzoate] | 4.6

assay: physchem; conditions: pH 7, aqueous buffer, thermodynamic from solid
Procedure: At least 1 times up to about 5 times the amount of sulfonamide needed for saturation is added to a mixing vessel containing stock buffer solution at the test temperature (e.g., 20° C.). The mixture is magnetically stirred in the dark while being maintained at the test temperature. Samples are periodically removed for analysis. The samples are centrifuged using a high speed, temperature-controlled centrifuge at the test temperature for about 20 minutes at ≧12000 G to remove suspended particles. An aliquot of each supernatant is taken for analysis.
The concentration of sulfonamide in the supernatant is determined by a high pressure liquid chromatography (HPLC) method suitable for the particular sulfonamide. Typically the HPLC method will use a reversed phase chromatography column and UV detection. […] Also, the pH of the supernatant is measured using a calibrated pH meter capable of resolving differences of 0.1 pH units or less to verify that the pH is 7. Samples are successively withdrawn from the mixing vessel and analyzed until three successive samples show little or no variation in concentration. The test is preferably replicated to ensure accuracy.

Row | Molecule | solubility [µg/mL]
12 | COC(=O)c1ccccc1CS(=O)(=O)NC(=O)Nc1nc(OC)cc(OC)n1 [bensulfuron-methyl, methyl 2-[[[[[(4,6-dimethoxy-2-pyrimidinyl)amino]carbonyl]amino]-sulfonyl]methyl]benzoate] | < 1000
13 | COC(=O)c1ccccc1S(=O)(=O)NC(=O)Nc1nc(C)nc(OC)n1 [metsulfuron-methyl, methyl 2-[[[[(4-methoxy-6-methyl-1,3,5-triazin-2-yl)amino]carbonyl]amino]sulfonyl]-benzoate] | 1000 to 10000 (≈ 2620 to 26200 µM)
14 | COC(=O)c1ccccc1S(=O)(=O)NC(=O)Nc1nc(C)cc(C)n1 [sulfometuron-methyl, methyl 2-[[[[(4,6-dimethyl-2-pyrimidinyl)amino]carbonyl]amino]sulfonyl]benzoate] | < 1000
15 | COC(=O)c1ccccc1S(=O)(=O)NC(=O)N(C)c1nc(C)nc(OC)n1 [tribenuron-methyl, methyl 2-[[[[N-(4-methoxy-6-methyl-1,3,5-triazin-2-yl)-N-methylamino]carbonyl]-amino]sulfonyl]benzoate] | 1000 to 10000 (≈ 2530 to 25300 µM)
16 | CCOC(=O)c1ccccc1S(=O)(=O)NC(=O)Nc1nc(Cl)cc(OC)n1 [chlorimuron-ethyl, ethyl 2-[[[[(4-chloro-6-methoxy-2-pyrimdinyl)amino]carbonyl]amino]sulfonyl]benzoate] | 1000 to 10000 (≈ 2410 to 24100 µM)

assay: not given; conditions: cited from earlier work

Row | Molecule | First pKa (conjugate acid) | Second pKa (conjugate acid) | Third pKa (conjugate acid)
17 | O=P([O-])([O-])OP(=O)([O-])[O-].[Na+].[Na+].[Na+].[Na+] [Na4P2O7, sodium pyrophosphate] | 9.0 | 7.0 | 2.0
18 | sodium phosphate dodecahydrate [Na3PO4.12H2O] | – | 7.2 | 2.1
19 | O=C([O-])[O-].[Na+].[Na+] [Na2CO3, sodium carbonate] | 10.2 | 6.4 | –
20 | O.O=C([O-])[O-].[Na+].[Na+] [Na2CO3.H2O, sodium carbonate monohydrate] | 10.2 | 6.4 | –
21 | O=C([O-])[O-].[K+].[K+] [K2CO3, potassium carbonate] | 10.2 | 6.4 | –
22 | O=P([O-])([O-])OP(=O)([O-])[O-].[K+].[K+].[K+].[K+] [K4P2O7, potassium pyrophosphate] | 9.0 | 7.0 | 2.0
